The text below walks through data of article PMC2909000 (Current topics in medicinal chemistry, 2009).

The test system of data set [1] is two component NS2B-NS3 Proteinase of West Nile Virus. The conditions noted are these: another MLSCN Center; ref xxix, xxx; cited from earlier work.
A further data set concerns SARS-CoV. The settings on record: cited from earlier work.
Another data set relates to cathepsin B. The conditions noted are these: relative to cathepsin L.
The test system of the next data set is human liver cathepsin L. The settings on record: cited from earlier work.
The subject of a further data set is Ebola virus. The conditions noted are these: cited from earlier work.
The test system of the next data set is zebrafish. The settings on record: cited from earlier work.
The subject of data set [2] is bovine aortic endothelial cells. The settings on record: ref xl; cited from earlier work.
Another data set concerns Leishmania major. The conditions noted are these: read-out: IC50, Leishmania major; cellular model of infection; ref xl; cited from earlier work.
A further data set deals with Plasmodium falciparum. The conditions noted are these: read-out: IC50, Plasmodium falciparum; cellular model of infection; ref xl; cited from earlier work.
A short description of data set [3]: reaction of 15a in the presence of cysteine, LC/MS monitoring for products. It is filed as physicochemical.
The target in a further data set is cathepsin L (Homo sapiens, UniProt P07711). It is filed as biochemical. The conditions noted are these: stoichiometric amounts of enzyme.
cathepsin L, sequence (P07711 114-333): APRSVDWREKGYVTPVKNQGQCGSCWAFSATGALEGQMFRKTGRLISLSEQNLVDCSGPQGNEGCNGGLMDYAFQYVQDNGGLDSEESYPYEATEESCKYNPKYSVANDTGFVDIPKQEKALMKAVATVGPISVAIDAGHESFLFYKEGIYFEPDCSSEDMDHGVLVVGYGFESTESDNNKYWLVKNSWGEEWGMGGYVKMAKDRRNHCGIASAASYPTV

SMILES strings stand for the structures. Where two headings read alike, the source gives them in different places. Some results are limits rather than exact numbers.

Take `COc1ccc(S(=O)(=O)n2nc(OC(=O)c3ccccc3)cc2N)cc1` [CID 655490]: the “mode of inhibition of NS2B-NS3 Proteinase” value in data set [1] was “slow-binding, reversible, non-competitive inhibitor”.

As for `CC(C)(C)OC(=O)N[C@@H](Cc1c[nH]c2ccccc12)C(=O)NNC(=O)OCC(=O)N1CCCc2ccccc21` [Compound 19], the “concentration preventing entry of SARS-CoV into cells” value with SARS-CoV is “sub-micromolar”. Besides, the “selectivity compared to cathepsin B” value with cathepsin B (ref xxx) is greater than 700 fold. Also, the IC50 (commonly the midpoint of a concentration-inhibition curve) is 0.4 nM in the data set on human liver cathepsin L (read-out: IC50 against cathepsin L with a 4 hour pre-incubation, 4 hour pre-incubation, ref xxx) and 7 nM in the data set on human liver cathepsin L (read-out: IC50 against cathepsin L, no pre-incubation, ref xxx). Also, in the data set with human liver cathepsin L (ref xxxviii), the “cathepsin L activity of analogs with modified C2 carbonyl reactivity” value is listed as “as potent as the thiocarbazate”. For the same compound, the “concentration preventing entry of Ebola virus into cells” value in the data set on Ebola virus is “sub-micromolar”. Besides, the “toxicity in zebrafish whole organism assay” value in the data set with zebrafish (no toxicity detected up to this concentration, ref xxx) is greater than 100 µM.

As to `CCc1ccccc1NC(=O)CSC(=O)NNC(=O)[C@H](Cc1c[nH]c2ccccc12)NC(=O)OC(C)(C)C` [Compound 15a], in data set [2], the “Toxicity (bovine aortic endothelial cells)” value was 16 µM. Further, the IC50 was 12500 nM in the data set with Leishmania major; 56 nM in the data set on human liver cathepsin L (cathepsin L, no preincubation stated, ref xl); 56 nM with human liver cathepsin L (read-out: Cathepsin L inhibition IC50, analogs of 15a, ref xlii); 1 nM in the data set on human liver cathepsin L (read-out: IC50(4h preincubation), cathepsin L, 4h preincubation, ref xl); 15400 nM in the data set on Plasmodium falciparum. In addition, the “Selectivity vs cathepsin B” value in the data set with cathepsin B (ref xl) is reported as 45-fold. Further, at human liver cathepsin L (cathepsin L, ref xl), the Ki (usually the equilibrium dissociation constant of an inhibitor or competing ligand from its target) is 0.89 nM. Moreover, in the data set with human liver cathepsin L (cathepsin L, ref xl), the koff (usually the rate constant with which the complex falls apart) is 2.2e-05 s⁻¹. Also, in the data set on human liver cathepsin L (ref xl), the “kinetic characterization of inhibition” value is given as “slowly reversible inhibition”. Also, the “products detected in the presence of cysteine” value in data set [3] is “no detectable products”. Further, the “Toxicity (zebrafish)” value with zebrafish (ref xl) was greater than 100 µM. Also, on cathepsin L, the “products of hydrolysis (20 and 21) detected by LC/MS” value is given as “No products were detected”.
